Test results from patent publication US20110160213A1, “PHARMACEUTICAL COMPOSITIONS FOR THE TREATMENT OF INFLAMMATORY AND ALLERGIC DISORDERS” (Glenmark Pharmaceuticals, S.A., priority 2007, published 2011).

Assay: Solubility by shake flask method in various media
Assay type: physicochemical
Details: for Solubility: about 37° C., after 24 hours

Solubility (0.1N HCl with 1% sodium lauryl sulphate): 8.81 mg/250 ml
Solubility (0.1N HCl): 9.17 mg/250 ml
Solubility (Acetate buffer pH 4.5): 1.69 mg/250 ml
Solubility (Acetate buffer pH 4.5 with 0.1% SLS): 4.81 mg/250 ml
Solubility (Citrate buffer pH 3.0): 6.02 mg/250 ml
Solubility (Citrate buffer pH 3.0 with 1% Triton X): 8.6 mg/250 ml
Solubility (Water): 0.68 mg/250 ml
Solubility in water (in words) (water): poor solubility in water
Compound: O=C(Nc1c(Cl)c[n+]([O-])cc1Cl)c1ccc(OC(F)F)c2oc3ccncc3c12.[Na] [3,5-dichloro-4-(6-difluoromethoxybenzo[4,5]furo[3,2-c]pyridin-9-ylcarboxamido)-1-pyridiniumolate, sodium salt]
